Data reported in PubChem BioAssay AID1259407 (Chemical Carcinogenesis Research Information System (CCRIS), 2018).
Calls of active or inactive are those of the source. How the calls were made is not given here.

Tested on: CCRIS mutagenicity, Ames/micronucleus/aberration tests
Test: CCRIS mutagenicity studies
[1] = Test System: AMES SALMONELLA TYPHIMURIUM, Strain/Indicator: TA98, Metabolic Activation: NONE, Method: PREINCUBATION
[2] = Test System: AMES SALMONELLA TYPHIMURIUM, Strain/Indicator: TA100, Metabolic Activation: NONE, Method: PREINCUBATION

O=[N+]([O-])c1ccc(Cl)cc1Cl
mutagenic call (End Point: IN VITRO CHROMOSOMAL ABERRATIONS, Test System: CHL CELLS, Metabolic Activation: RAT, LIVER, S-9, SODIUM PHENOBARBITAL AND 5,6-BENZOFLAVONE): active; positive (structural changes); authors report equivocal results for ploidy chang | mutagenic call [1]: inactive; negative | mutagenic call (Test System: AMES SALMONELLA TYPHIMURIUM, Strain/Indicator: TA98, Metabolic Activation: RAT, LIVER, S-9, KANECHLOR 500, Method: PREINCUBATION): inactive; negative | mutagenic call [2]: active; positive | mutagenic call (Test System: AMES SALMONELLA TYPHIMURIUM, Strain/Indicator: TA100, Metabolic Activation: NONE, Method: STANDARD PLATE): inactive; negative | mutagenic call (Test System: AMES SALMONELLA TYPHIMURIUM, Strain/Indicator: TA100, Metabolic Activation: RAT LIVER S-9, PHENOBARBITAL AND BETA-NAPHTHOFLAVONE, Method: PREINCUBATION): active; positive | mutagenic call (Test System: AMES SALMONELLA TYPHIMURIUM, Strain/Indicator: TA100, Metabolic Activation: RAT, LIVER, S-9, KANECHLOR 500, Method: PREINCUBATION): active; positive | mutagenic call (Test System: AMES SALMONELLA TYPHIMURIUM, Strain/Indicator: TA1535, Metabolic Activation: RAT LIVER S-9, PHENOBARBITAL AND BETA-NAPHTHOFLAVONE, Method: PREINCUBATION): inactive; negative | mutagenic call (Test System: AMES SALMONELLA TYPHIMURIUM, Strain/Indicator: TA1537, Metabolic Activation: RAT LIVER S-9, PHENOBARBITAL AND BETA-NAPHTHOFLAVONE, Method: PREINCUBATION): inactive; negative | mutagenic call (Test System: E.COLI, Strain/Indicator: WP2UVRA, Metabolic Activation: NONE, Method: PREINCUBATION): inactive; negative | mutagenic call (Test System: E.COLI, Strain/Indicator: WP2UVRA, Metabolic Activation: RAT LIVER S-9, PHENOBARBITAL AND BETA-NAPHTHOFLAVONE, Method: PREINCUBATION): inactive; negative

CC(C)c1ccc2oc3nc(N)c(C(=O)O)cc3c(=O)c2c1
mutagenic call [1]: inactive; negative | mutagenic call (Test System: AMES SALMONELLA TYPHIMURIUM, Strain/Indicator: TA98, Metabolic Activation: RAT, LIVER, S-9, AROCLOR 1254, Method: PREINCUBATION): inactive; negative | mutagenic call [2]: inactive; negative | mutagenic call (Test System: AMES SALMONELLA TYPHIMURIUM, Strain/Indicator: TA100, Metabolic Activation: RAT, LIVER, S-9, AROCLOR 1254, Method: PREINCUBATION): inactive; negative | mutagenic call (Test System: AMES SALMONELLA TYPHIMURIUM, Strain/Indicator: TA1537, Metabolic Activation: NONE, Method: PREINCUBATION): inactive; negative | mutagenic call (Test System: AMES SALMONELLA TYPHIMURIUM, Strain/Indicator: TA1537, Metabolic Activation: RAT, LIVER, S-9, AROCLOR 1254, Method: PREINCUBATION): inactive; negative | mutagenic call (Test System: E. COLI, Strain/Indicator: WP2 (HCR), Metabolic Activation: NONE, Method: PREINCUBATION): inactive; negative | mutagenic call (Test System: E. COLI, Strain/Indicator: WP2 (HCR), Metabolic Activation: RAT, LIVER, S-9, AROCLOR 1254, Method: PREINCUBATION): inactive; negative

Nc1cc([N+](=O)[O-])c(C(=O)O)c([N+](=O)[O-])c1
mutagenic call (End Point: In vitro chromosomal aberrations, Test System: V79 Chinese hamster fibroblasts, Metabolic Activation: None): inactive; negative | mutagenic call (End Point: In vitro micronucleus, Test System: HepG2 human hepatoma cells, Metabolic Activation: None): active; positive | mutagenic call (Test System: Ames Salmonella typhimurium, Strain/Indicator: TA98, Metabolic Activation: None, Method: Standard plate): active; positive | mutagenic call (Test System: Ames Salmonella typhimurium, Strain/Indicator: TA98, Metabolic Activation: Rat, Liver, S-9, Method: Standard plate): active; positive | mutagenic call (Test System: Ames Salmonella typhimurium, Strain/Indicator: TA98NR, Metabolic Activation: None, Method: Standard plate): active; positive, ta98nr is the nitroreductase-deficient derivative of ta98. | mutagenic call (Test System: Ames Salmonella typhimurium, Strain/Indicator: TA100, Metabolic Activation: None, Method: Standard plate): active; positive | mutagenic call (Test System: Ames Salmonella typhimurium, Strain/Indicator: TA100, Metabolic Activation: Rat, Liver, S-9, Method: Standard plate): active; positive

CC(=O)CC(=O)Nc1ccccc1
mutagenic call (End Point: In vitro chromosomal aberrations, Test System: Chinese hamster lung (CHL/IU) cells, Metabolic Activation: Rat, Liver, S9, Phenobarbital and 5,6-benzoflavone): inactive; negative | mutagenic call (Test System: AMES SALMONELLA TYPHIMURIUM, Strain/Indicator: TA97, Metabolic Activation: HAMSTER, LIVER, S-9, AROCLOR 1254 (10%), Method: PREINCUBATION): inactive; negative | mutagenic call (Test System: AMES SALMONELLA TYPHIMURIUM, Strain/Indicator: TA97, Metabolic Activation: HAMSTER, LIVER, S-9, AROCLOR 1254 (30%), Method: PREINCUBATION): inactive; negative | mutagenic call (Test System: AMES SALMONELLA TYPHIMURIUM, Strain/Indicator: TA97, Metabolic Activation: NONE, Method: PREINCUBATION): inactive; negative | mutagenic call (Test System: AMES SALMONELLA TYPHIMURIUM, Strain/Indicator: TA97, Metabolic Activation: RAT, LIVER, S-9, AROCLOR 1254 (10%), Method: PREINCUBATION): inactive; negative | mutagenic call (Test System: AMES SALMONELLA TYPHIMURIUM, Strain/Indicator: TA97, Metabolic Activation: RAT, LIVER, S-9, AROCLOR 1254 (30%), Method: PREINCUBATION): inactive; negative | mutagenic call (Test System: AMES SALMONELLA TYPHIMURIUM, Strain/Indicator: TA98, Metabolic Activation: HAMSTER, LIVER, S-9, AROCLOR 1254 (10%), Method: PREINCUBATION): inactive; negative | mutagenic call (Test System: AMES SALMONELLA TYPHIMURIUM, Strain/Indicator: TA98, Metabolic Activation: HAMSTER, LIVER, S-9, AROCLOR 1254 (30%), Method: PREINCUBATION): inactive; negative | mutagenic call [1]: inactive; negative | mutagenic call (Test System: AMES SALMONELLA TYPHIMURIUM, Strain/Indicator: TA98, Metabolic Activation: RAT, LIVER, S-9, AROCLOR 1254 (10%), Method: PREINCUBATION): inactive; negative | mutagenic call (Test System: AMES SALMONELLA TYPHIMURIUM, Strain/Indicator: TA98, Metabolic Activation: RAT, LIVER, S-9, AROCLOR 1254 (30%), Method: PREINCUBATION): inactive; negative | mutagenic call (Test System: AMES SALMONELLA TYPHIMURIUM, Strain/Indicator: TA100, Metabolic Activation: HAMSTER, LIVER, S-9, AROCLOR 1254 (10%), Method: PREINCUBATION): inactive; negative | mutagenic call (Test System: AMES SALMONELLA TYPHIMURIUM, Strain/Indicator: TA100, Metabolic Activation: HAMSTER, LIVER, S-9, AROCLOR 1254 (30%), Method: PREINCUBATION): inactive; negative | mutagenic call [2]: inactive; negative | mutagenic call (Test System: AMES SALMONELLA TYPHIMURIUM, Strain/Indicator: TA100, Metabolic Activation: RAT, LIVER, S-9, AROCLOR 1254 (10%), Method: PREINCUBATION): inactive; negative | mutagenic call (Test System: AMES SALMONELLA TYPHIMURIUM, Strain/Indicator: TA100, Metabolic Activation: RAT, LIVER, S-9, AROCLOR 1254 (30%), Method: PREINCUBATION): inactive; negative | mutagenic call (Test System: AMES SALMONELLA TYPHIMURIUM, Strain/Indicator: TA1535, Metabolic Activation: HAMSTER, LIVER, S-9, AROCLOR 1254 (10%), Method: PREINCUBATION): inactive; negative | mutagenic call (Test System: AMES SALMONELLA TYPHIMURIUM, Strain/Indicator: TA1535, Metabolic Activation: HAMSTER, LIVER, S-9, AROCLOR 1254 (30%), Method: PREINCUBATION): inactive; negative | mutagenic call (Test System: AMES SALMONELLA TYPHIMURIUM, Strain/Indicator: TA1535, Metabolic Activation: NONE, Method: PREINCUBATION): inactive; negative | mutagenic call (Test System: AMES SALMONELLA TYPHIMURIUM, Strain/Indicator: TA1535, Metabolic Activation: RAT, LIVER, S-9, AROCLOR 1254 (10%), Method: PREINCUBATION): inactive; negative | mutagenic call (Test System: AMES SALMONELLA TYPHIMURIUM, Strain/Indicator: TA1535, Metabolic Activation: RAT, LIVER, S-9, AROCLOR 1254 (30%), Method: PREINCUBATION): inactive; negative | mutagenic call (Test System: Ames Salmonella typhimurium, Strain/Indicator: TA98, Metabolic Activation: None, Method: Preincubation): inactive; negative | mutagenic call (Test System: Ames Salmonella typhimurium, Strain/Indicator: TA98, Metabolic Activation: Rat, Liver, S9, Sodium phenobarbital and 5,6-benzoflavone (10%), Method: Preincubation): inactive; negative | mutagenic call (Test System: Ames Salmonella typhimurium, Strain/Indicator: TA100, Metabolic Activation: None, Method: Preincubation): inactive; negative | mutagenic call (Test System: Ames Salmonella typhimurium, Strain/Indicator: TA100, Metabolic Activation: Rat, Liver, S9, Sodium phenobarbital and 5,6-benzoflavone (10%), Method: Preincubation): inactive; negative | mutagenic call (Test System: Ames Salmonella typhimurium, Strain/Indicator: TA1535, Metabolic Activation: None, Method: Preincubation): inactive; negative | mutagenic call (Test System: Ames Salmonella typhimurium, Strain/Indicator: TA1535, Metabolic Activation: Rat, Liver, S9, Sodium phenobarbital and 5,6-benzoflavone (10%), Method: Preincubation): inactive; negative | mutagenic call (Test System: Ames Salmonella typhimurium, Strain/Indicator: TA1537, Metabolic Activation: None, Method: Preincubation): inactive; negative | mutagenic call (Test System: Ames Salmonella typhimurium, Strain/Indicator: TA1537, Metabolic Activation: Rat, Liver, S9, Sodium phenobarbital and 5,6-benzoflavone (10%), Method: Preincubation): inactive; negative | mutagenic call (Test System: E. coli, Strain/Indicator: WP2uvrA/pKM101, Metabolic Activation: None, Method: Preincubation): active; positive | mutagenic call (Test System: E. coli, Strain/Indicator: WP2uvrA/pKM101, Metabolic Activation: Rat, Liver, S9, Sodium phenobarbital and 5,6-benzoflavone (10%), Method: Preincubation): active; positive
